Test [1] concerns Plasmodium berghei (chloroquine sensitive strain). Briefly: In vivo anti-malarial activity, 4-day suppressive test in infected mice. Conditions: Swiss albino mice; for Day 4 % Suppression / Day 5 % Suppression / Day 6 % Suppression: intragastric. The protocol:
Tests were performed in a 4-day suppressive standard test using the methods of David, Thurston and Peters (David, A. F., Philip, J. R., Simon, L. C., Reto B., and Solomon N. Antimalarial drug discovery: Efficacy models for compound screening. Nature Reviews. 2004; 3: 509-520). The plasmodium species, that is most widely employed in rodent malaria parasite-Plasmodium berghei (chloroquine sensitive strain), was used to infect Swiss albino mice for a fourday suppressive test. The P. berghei was subsequently maintained in the laboratory by serial blood passage from mouse to mouse. For the study, a donor mouse with a rising parasitemia of 20% was sacrificed and its blood was collected in a slightly heparinized syringe from the auxiliary vessels. The blood was diluted with Trisodium Citrate (TC) medium so that each 0.2 ml contained approximately 107 infected red cells. Each animal received inoculums of about […], which is expected to produce a steadily rising infection in mice.
Male Swiss albino mice were used. The mice were allowed to acclimatize to the laboratory environment under a controlled temperature of 20° C. and at optimum humidity for at least three days before being subjected to the experiments. All of the mice were divided into groups of six, and infected with malaria parasites.
The infection of the recipient mice was initiated by needle passage of the above mentioned parasite preparation, from the donor to healthy test animals via an intraperitoneal route. Therefore, P. berghei infected red blood cells were intraperitoneally injected into the mice from the blood diluted with TC medium so that each 0.2 ml had approximately 106-107 infected red cells (parasite per kg of body weight). Each mouse was infected with single inoculums of 0.2 ml blood.
The 4-day procedures were started on Mondays while blood smears for parasitemia were collected on Fridays. The infected mice were weighed, randomly divided into treatment, vehicle and standard drug groups. […] The compounds were administered through intra gastric route using the stomach tube to ensure the safe ingestion of the compounds and the vehicle.
Thin smears of blood films were obtained from the peripheral blood on the tail from each mouse on day four after infection. The smears were placed on microscopic slides, fixed with methanol and stained with Gemsa at pH 7.2, for parasitemia. […] The number of parasitized erythrocytes in each of the 10-50 such fields were counted three times and the average was calculated to give the Parasitemia of each individual animal. Percentage of suppression was calculated by using the following formula. % Suppression=(Parasitemia in negative control−Parasitemia in study group)/Parasitemia in negative control

The test system of test [2] is chloroquine sensitive (D6) strain of P. falciparum. Briefly: In vitro anti-malarial activity assay (plasmodial LDH activity), D6 clone. Format: cell-based. Particulars: Plasmodium falciparum, D6; 72 h incubation, LDH readout; read-out: P. falciparum (D6 Clone) IC50. The protocol: In vitro anti-malarial activity of the representative compounds was determined against chloroquine sensitive (D6) and chloroquine-resistant (W2) strains of P. falciparum.
The anti-malarial activity was determined by measuring plasmodial LDH activity as described earlier (Jain, M.; Khan, S. I.; Tekwani, B. L.; Jacob, M. R.; Singh, S.; Singh, P. P.; Jain, R. Synthesis, anti-malarial, antileishmanial, and antimicrobial activities of some 8-quinolinamine analogues. Bioorg. Med. Chem. 2005, 13, 4458-4466). A suspension of red blood cells infected with D6 or W2 strains of P. falciparum (200 with 2% parasitemia and 2% hematocrit in RPMI 1640 medium supplemented with 10% human serum and 60 µg/mL Amikacin) was added to the wells of a 96-well plate containing 10 μL of serially diluted test samples. The plate was flushed with a gas mixture of 90% N2, 5% O2, and 5% CO2 and incubated at 37° C. for 72 h in a modular incubation chamber (Billups-Rothenberg, Calif.). Parasitic LDH activity was determined by using Malstat™ reagent (Flow Inc., Portland, Oreg.) according to the procedure of Makler and Hinrichs (M. T. Makler and D. J. Hinrichs, Measurement of the lactate dehydrogenase activity of Plasmodium falciparum as an assessment of parasitemia. J. Am. J. Trop. Med. Hyg. 1993, 48(2):205-210). Briefly, 20 μl, of the incubation mixture was mixed with 100 μL of the Malstat™ reagent and incubated at room temperature for 30 min Twenty microliters of a 1:1 mixture of NBT/PES (Sigma, St. Louis, Mo.) was then added and the plate was further incubated in the dark for 1 h. The reaction was then stopped by the addition of 100 μL of a 5% acetic acid solution. The plate was read at 650 nm. Artemisinin and chloroquine were included in each assay as the drug controls. IC50 values were computed from the dose-response curves. To determine the selectivity index of anti-malarial activity of compounds, their cytotoxicity in vitro to mammalian cells was also determined. The assay was performed in 96-well tissue culture-treated plates as described earlier (J. Mustafa, S. I. Khan, G. Ma, L. A. Walker and I. A. Khan, Synthesis and Anticancer Activities of Fatty Acid Analogs of Podophyllotoxin. Lipids. 2004, 39(2):167-172). Vero cells (monkey kidney fibroblasts) were seeded to the wells of 96-well plate at a density of 25,000 cells/well and incubated for 24 h. Samples at different concentrations were added and plates were again incubated for 48 h. The number of viable cells was determined by Neutral Red assay. IC50 values were obtained from dose-response curves. Doxorubicin was used as a positive control.

Consider `O=C(/C=C/c1ccc(O)cc1)OC[C@H]1O[C@@H](Oc2c(-c3ccc(O)cc3)oc3cc(O)cc(O)c3c2=O)[C@H](O)[C@@H](O)[C@@H]1O` [Tiliroside], for which the “Day 4 % Suppression” value in test [1] (10 mg/kg daily for 4 days) is reported as 39.1%; in test [1] (50 mg/kg daily for 4 days), 56.5%; in test [1] (100 mg/kg daily for 4 days), 34.7%; in test [1] (200 mg/kg daily for 4 days) it was 21.7%. The “Day 5 % Suppression” value in test [1] (10 mg/kg daily for 4 days) came to 51.5%; in test [1] (50 mg/kg daily for 4 days), 64.0%; in test [1] (100 mg/kg daily for 4 days), 39.3%; in test [1] (200 mg/kg daily for 4 days), 30.3%; in test [1] (400 mg/kg daily for 4 days) it was 9.0%. For the same compound, the “Day 6 % Suppression” value is 35.1% in test [1] (10 mg/kg daily for 4 days), 54.0% in test [1] (50 mg/kg daily for 4 days), 21.6% in test [1] (100 mg/kg daily for 4 days) and 18.9% in test [1] (200 mg/kg daily for 4 days). Also, the maximum suppression ratio in test [1] (maximum over doses and days) amounted to 60%. For the same compound, the IC50 in test [2] came out at 123 µM.

In general, IC50 refers to the concentration needed to halve the response being measured.
